Assay results as given in PubChem BioAssay (NCI).
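Step 1: Grow cells in 96-well plates. Step 2: Expose to compound for 48 hours at 5 concentrations. Step 3: Interpolate endpoints linearly; if unreached, use highest concentration. TGI is the concentration that stops growth completely.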

Assays:
Assay in all cases: NCI-60 cell line screen, 48 h
786-0 renal = test system: 786-0 renal
A498 renal = test system: A498 renal
A549 NSCLC = test system: A549 NSCLC
ACHN renal = test system: ACHN renal
CAKI-1 renal = test system: CAKI-1 renal
CCRF-CEM leukemia = test system: CCRF-CEM leukemia
COLO 205 colon = test system: COLO 205 colon
DLD-1 colon = test system: DLD-1 colon
DMS 114 small cell lung = test system: DMS 114 small cell lung
DMS 273 small cell lung = test system: DMS 273 small cell lung
EKVX NSCLC = test system: EKVX NSCLC
HCC-2998 colon = test system: HCC-2998 colon
HCT-116 colon = test system: HCT-116 colon
HCT-15 colon = test system: HCT-15 colon
HL-60(TB) leukemia = test system: HL-60(TB) leukemia
HOP-62 NSCLC = test system: HOP-62 NSCLC
HOP-92 NSCLC = test system: HOP-92 NSCLC
HT29 colon = test system: HT29 colon
IGROV1 ovarian = test system: IGROV1 ovarian
K-562 leukemia = test system: K-562 leukemia
KM12 colon = test system: KM12 colon
KM20L2 colon = test system: KM20L2 colon
LOX IMVI melanoma = test system: LOX IMVI melanoma
LXFL 529 NSCLC = test system: LXFL 529 NSCLC
M19-MEL melanoma = test system: M19-MEL melanoma
MOLT-4 leukemia = test system: MOLT-4 leukemia
NCI-H226 lung = test system: NCI-H226 lung
NCI-H23 lung = test system: NCI-H23 lung
NCI-H460 lung = test system: NCI-H460 lung
NCI-H522 lung = test system: NCI-H522 lung
OVCAR-3 ovarian = test system: OVCAR-3 ovarian
OVCAR-4 ovarian = test system: OVCAR-4 ovarian
OVCAR-8 ovarian = test system: OVCAR-8 ovarian
RPMI-8226 leukemia = test system: RPMI-8226 leukemia
SF-268 CNS = test system: SF-268 CNS
SF-295 CNS = test system: SF-295 CNS
SF-539 CNS = test system: SF-539 CNS
SK-MEL-2 melanoma = test system: SK-MEL-2 melanoma
SK-MEL-28 melanoma = test system: SK-MEL-28 melanoma
SK-MEL-5 melanoma = test system: SK-MEL-5 melanoma
SK-OV-3 ovarian = test system: SK-OV-3 ovarian
SN12C renal = test system: SN12C renal
SNB-19 CNS = test system: SNB-19 CNS
SNB-75 CNS = test system: SNB-75 CNS
SNB-78 CNS = test system: SNB-78 CNS
SR leukemia = test system: SR leukemia
SW-620 colon = test system: SW-620 colon
TK-10 renal = test system: TK-10 renal
U251 CNS = test system: U251 CNS
UACC-257 melanoma = test system: UACC-257 melanoma
UACC-62 melanoma = test system: UACC-62 melanoma
UO-31 renal = test system: UO-31 renal
MALME-3M melanoma = test system: MALME-3M melanoma
OVCAR-5 ovarian = test system: OVCAR-5 ovarian
RXF 393 renal = test system: RXF 393 renal

Measured: TGI

CCCCCn1cnc2c1S(=O)(=O)N(C)C(NC(=O)c1ccccc1)=N2
not listed: MALME-3M melanoma | OVCAR-5 ovarian | RXF 393 renal
> 100 µM: all other assays above

CCOC(=O)N1CCC(=O)C[C@@H]1C/C=C/P1(=O)O[C@H](c2ccccc2)C(C)N1C(C)C (some centres undefined)
not listed: A498 renal | CCRF-CEM leukemia | COLO 205 colon | DLD-1 colon | HL-60(TB) leukemia | HOP-62 NSCLC | LOX IMVI melanoma | NCI-H460 lung
> 100 µM: all other assays above
